What was measured:
Assay type in all cases: cell-based, human
HAEC = HAEC viability (MTS assay and visual inspection); details: concentrations used in this study
Experimental: (§1) Cell culture and treatment of HAEC: Human aortic endothelial cells (HAEC; Cambrex Bio Science Walkersville, Inc., Walkersville, Md.) are cultured in M199 supplemented with 8% FBS, 100 μg/ml heparin, 10 ng/ml endothelial growth factor, 100 μg/ml hypothalamus extract, 2 mM L-glutamine, 1% non-essential amino acids, 100 units/ml penicillin and 100 μg/ml streptomycin. HAEC are subcultured on gelatin pre-coated: 96-well tissue culture plates (Corning Incorporated; Corning, N.Y.) for viability assays and ELISA; 100-mm tissue culture dishes (BD Falcon; Franklin Lakes, N.J.) for Northern blot analyses, Western blot analyses and EMSA; 35-mm tissue culture dishes (Corning) for adhesion assays and on 24-well tissue culture plates for luciferase promoter assays (BD Falcon). All experiments are performed with confluent HAEC monolayers. Unless noted otherwise, HAEC are treated with 25 ng/ml TNF-α, in the absence or presence of C-10 or 0.25% DMSO (carrier control for C-10), for 2-24 hrs. The concentration of DMSO is held constant at 0.25% (unless indicated otherwise) for all of the C-10 conditions.

E-selectin = assay: TNF-α induced E-selectin mRNA in HAEC (Northern blot)
Experimental: as §1
HAEC are washed with PBS and total RNA extracted using a commercial kit (RNeasy Mini Kit; Qiagen Inc.; Valencia, Calif.). 12 μg of total RNA per lane is resolved on 1% denaturing agarose gels containing 0.66M formaldehyde. […]

NF-κB = assay: EMSA of TNF-α induced NF-κB binding activity to VCAM-1 promoter; details: 0.5 mM; 2 hr. TNF-α; HAEC nuclear extract
Experimental: Nuclear Extracts and EMSA: Nuclear extracts are prepared from harvested HAEC using NE-PER® extraction reagents (Pierce Chemical Co.; Rockford, Ill.) in the presence of a protease inhibitor cocktail (PMSF, Leupeptin, Pepstatin-A). Oligonucleotides (Biosynthesis Inc.; Lewisville, Tex.) are annealed and precipitated double stranded oligonucleotides end labeled with γ-^32P-ATP using T4 polynucleotide kinase enzyme. Binding reactions (20 min., room temperature) included ^32P-labeled probe (activity 100,000 cpm), 3-6 μg HAEC nuclear extract, 1 μg poly(dI-dC), 1 mM DTT, 10% glycerol and 1× binding buffer. Binding buffer (10×) for NF-κB EMSA is 200 mM HEPES-KOH (pH7.9), 340 mM KCl, 50 mM MgCl2, 5 mM EDTA (pH 8.0), 1% Triton X-100. Binding buffer (10×) for IRF-1 EMSA is 100 mM Tris-HCL (pH 7.5), 500 mM NaCl, 50 mM MgCl2, 10 mM EDTA (pH 8.0). In competition studies, nuclear extracts are incubated with 100 fold molar excess of unlabeled double stranded oligonucleotide. In supershift studies, nuclear extracts are incubated with 2 μg of appropriate antibodies. After the incubations, reaction mixtures are electrophoresed (160V, room temperature) on 5% non-denaturing polyacrylamide gels containing 5% glycerol in 1×TBE (50 mM Tris, 50 mM boric acid, and 1 mM EDTA). Gels are dried and autoradiographed. Each experiment is replicated at least twice. […]

ICAM-1 = assay: ELISA of TNF-α induced ICAM-1 protein on HAEC
Experimental: as §1, with “The concentration of DMSO is held constant at 0.25% (unless indicated otherwise) for all of the C-10 conditions.” left out
HAEC are washed with cold HBSS+, fixed in 1% formaldehyde at 4° C. for 20 min., washed with cold HBSS+, and incubated in cold M199 containing 8% FBS. […] Following a 10 min. incubation at room temperature, the absorbance of the fluid in each well is determined at 450 nm using a micro-well plate spectrophotometer (Molecular Devices; Sunnyvale, Calif.). […]

VCAM-1 = assay: ELISA of TNF-α induced VCAM-1 protein on HAEC
Experimental: as §1
HAEC are washed with cold HBSS+, fixed in 1% formaldehyde at 4° C. for 20 min., washed with cold HBSS+, and incubated in cold M199 containing 8% FBS. Unless otherwise noted, from this point on all antibody dilutions and washes are carried out with M199 containing 8% FBS. Murine mAbs (primary mAbs) to ECAMs are added (10 μg/ml) and the HAEC incubated at 4° C. for 20 min. Following the incubation, the wells are washed and a peroxidase conjugated polyclonal (secondary) antibody to mouse IgG is added (diluted 1:50). After a 20 min. incubation at 4° C., the wells are washed and treated with OPD dissolved in phosphate citrate buffer containing sodium perborate. Following a 10 min. incubation at room temperature, the absorbance of the fluid in each well is determined at 450 nm using a micro-well plate spectrophotometer (Molecular Devices; Sunnyvale, Calif.). In every experiment, each condition is run in triplicate wells.

SMILES: Cn1c(-c2ccccc2)cnc1S [5-Phenylmethimazole]
- effect on HAEC viability (HAEC): little to no effect
- effect on TNF-α induced E-selectin mRNA expression (E-selectin; 2 hr. TNF-α): marginal effect
- effect on TNF-α induced E-selectin mRNA (E-selectin; 24 hr. TNF-α): reduced, in a dose dependent manner
- effect on TNF-α dependent NF-κB complex formation (EMSA) (NF-κB): no effect
- effect on TNF-α induced protein expression of ICAM-1 (ICAM-1; 4 hr. TNF-α): little to no effect
- effect on TNF-α induced protein expression of ICAM-1 (ICAM-1; 24 hr. TNF-α): no effect
- concentration at which significant reduction of TNF-α induced VCAM-1 protein expression is observed (VCAM-1; 4 hr. TNF-α): ≥ 0.25 mM
- effect on TNF-α induced protein expression of VCAM-1 (VCAM-1; 4 hr. TNF-α): significantly reduces
- concentration at which significant reduction of TNF-α induced VCAM-1 protein expression is observed (VCAM-1; 24 hr. TNF-α): ≥ 0.05 mM
- effect on TNF-α induced protein expression of VCAM-1 (VCAM-1; 24 hr. TNF-α): significantly reduces
